The source of these data is ChEMBL document CHEMBL1777706, “Discovery of selective and orally available spiro-3-piperidyl ATP-competitive MK2 inhibitors” (Bioorg Med Chem Lett, 2011).

Data set [1] concerns the target T1, MAP kinase-activated protein kinase 2 (Homo sapiens, UniProt P49137). Description: Inhibition of MK2 pretreated for 30 mins before fluorescein labeled substrate peptide addition measured after 2 hrs by IMAP assay.
For data set [2], the system named is THP-1. Description: Antiinflammatory activity in human THP1 cells assessed as inhibition of LPS-induced TNFalpha production pretreated 30 mins before LPS challenge measured after 4 hrs. It counts as functional, cell-based.
The target of data set [3] is T1, MAP kinase-activated protein kinase 2. Kind of data set: Inhibition of MK2 in LPS-stimulated human THP1 cells assessed as inhibition of Hsp27 phosphorylation pretreated 60 mins before LPS challenge measured after 10 mins. It is filed as cell-based, THP-1.
Data set [4] concerns PBMC. Description: Antiinflammatory activity in human PBMC cells assessed as inhibition of LPS-induced TNFalpha production pretreated 30 mins before LPS challenge measured after 4 hrs by ELISA. It counts as functional, cell-based. (In general: In an ELISA, binding on a coated surface is turned into a signal by an enzyme label.)
The nature of data set [5]: Inhibition of p38.
Data set [6] has as its target Serine/threonine-protein kinase pim-1 (Homo sapiens) (UniProt P11309). Kind of data set: Inhibition of PIM1 at 1 uM.
Data set [7] has as its target Serine/threonine-protein kinase pim-3 (Homo sapiens) (UniProt Q86V86). Description: Inhibition of PIM3 at 1 uM.
The target in data set [8] is Serine/threonine-protein kinase Chk2 (Homo sapiens) (UniProt O96017). Kind of data set: Inhibition of CHK2 at 1 uM.
Data set [9] concerns the target T2, Serine/threonine-protein kinase 17A (Homo sapiens) (UniProt Q9UEE5).
T2 sequence (whole entry): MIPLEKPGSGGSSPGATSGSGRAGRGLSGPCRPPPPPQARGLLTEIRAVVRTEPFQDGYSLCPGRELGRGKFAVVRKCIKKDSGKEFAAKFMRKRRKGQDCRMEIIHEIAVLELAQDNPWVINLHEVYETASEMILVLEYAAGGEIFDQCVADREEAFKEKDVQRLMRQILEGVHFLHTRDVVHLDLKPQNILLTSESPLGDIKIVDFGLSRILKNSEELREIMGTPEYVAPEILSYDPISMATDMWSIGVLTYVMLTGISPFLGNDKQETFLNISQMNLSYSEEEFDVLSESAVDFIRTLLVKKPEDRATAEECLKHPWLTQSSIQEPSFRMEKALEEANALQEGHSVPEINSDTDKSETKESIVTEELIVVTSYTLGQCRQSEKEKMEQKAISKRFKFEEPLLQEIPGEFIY
Kind of data set: Inhibition of DRAK1 at 1 uM.

Data set [10] concerns the target Mitogen-activated protein kinase 3 (Homo sapiens) (UniProt P27361). Description: Inhibition of ERK1 at 1 uM.
In data set [11] the target is Mitogen-activated protein kinase 1 (Homo sapiens) (UniProt P28482). Description: Inhibition of ERK2 at 1 uM.
Data set [12] in a line: Dissociation constant, pKa of the compound at pH 7.4. It is filed as physicochemical.
Data set [13] is described as follows: Half life in human liver microsomes. It counts as ADME, Microsome. A general note: Liver microsomes are vesicles of endoplasmic reticulum, rich in cytochrome P450 enzymes.
A short description of data set [14]: Half life in rat liver microsomes. It counts as ADME, Microsome.
Data set [15] in a line: AUC in po dosed rat. Particulars: plasma. It is filed as ADME, organism-based.
Data set [16] can be described thus: in vitro. The following applies: human, Caco-2.
Description: Permeability across human Caco2 cells
The subject of data set [17] is THP-1. Kind of data set: Cytotoxicity against human THP1 cells by Alamar blue assay. It counts as cell-based. In general terms: Resazurin is reduced to fluorescent resorufin, in cell work by metabolically active cells.

The structures appear in SMILES notation. Active and inactive are the calls of the source. No cut-off for these calls is given here. Where only a bound is given, the exact number is not on record here.

Chain of Serine/threonine-protein kinase pim-1 (Homo sapiens) (P11309 whole entry, looked up): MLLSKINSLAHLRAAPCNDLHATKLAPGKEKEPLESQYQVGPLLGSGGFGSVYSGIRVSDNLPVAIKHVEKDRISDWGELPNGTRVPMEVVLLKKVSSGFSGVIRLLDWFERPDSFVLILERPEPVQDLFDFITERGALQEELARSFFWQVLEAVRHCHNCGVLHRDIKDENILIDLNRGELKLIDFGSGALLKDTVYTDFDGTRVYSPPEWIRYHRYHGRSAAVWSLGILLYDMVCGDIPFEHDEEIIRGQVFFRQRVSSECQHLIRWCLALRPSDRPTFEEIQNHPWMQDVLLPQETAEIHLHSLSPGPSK
Chain of Serine/threonine-protein kinase Chk2 (Homo sapiens) (O96017 whole entry): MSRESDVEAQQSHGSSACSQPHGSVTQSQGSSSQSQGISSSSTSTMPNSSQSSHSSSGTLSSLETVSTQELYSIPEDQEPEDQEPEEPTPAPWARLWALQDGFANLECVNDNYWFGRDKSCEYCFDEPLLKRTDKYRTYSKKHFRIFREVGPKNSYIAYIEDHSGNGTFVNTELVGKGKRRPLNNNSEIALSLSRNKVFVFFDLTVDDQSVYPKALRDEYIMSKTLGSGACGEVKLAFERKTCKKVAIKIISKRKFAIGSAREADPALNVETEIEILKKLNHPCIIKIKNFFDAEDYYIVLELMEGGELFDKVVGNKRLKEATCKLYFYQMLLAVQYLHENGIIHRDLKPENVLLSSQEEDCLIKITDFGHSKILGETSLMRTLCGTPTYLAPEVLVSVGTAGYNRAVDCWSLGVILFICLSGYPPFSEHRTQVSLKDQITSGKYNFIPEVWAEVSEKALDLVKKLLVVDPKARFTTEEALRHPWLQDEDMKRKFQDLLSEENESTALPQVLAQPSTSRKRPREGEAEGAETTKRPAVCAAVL
Chain of Mitogen-activated protein kinase 3 (Homo sapiens) (P27361 whole entry): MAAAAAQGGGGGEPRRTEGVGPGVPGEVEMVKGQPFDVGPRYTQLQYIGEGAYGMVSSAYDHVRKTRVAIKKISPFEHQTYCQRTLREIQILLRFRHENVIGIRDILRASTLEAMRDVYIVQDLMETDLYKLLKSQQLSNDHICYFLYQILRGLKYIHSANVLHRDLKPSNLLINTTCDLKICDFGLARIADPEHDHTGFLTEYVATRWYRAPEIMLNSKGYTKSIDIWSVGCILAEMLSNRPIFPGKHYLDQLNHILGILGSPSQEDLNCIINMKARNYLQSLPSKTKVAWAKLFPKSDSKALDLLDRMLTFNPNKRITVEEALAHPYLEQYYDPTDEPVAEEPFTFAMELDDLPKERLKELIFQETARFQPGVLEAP
T1 sequence (P49137 whole entry): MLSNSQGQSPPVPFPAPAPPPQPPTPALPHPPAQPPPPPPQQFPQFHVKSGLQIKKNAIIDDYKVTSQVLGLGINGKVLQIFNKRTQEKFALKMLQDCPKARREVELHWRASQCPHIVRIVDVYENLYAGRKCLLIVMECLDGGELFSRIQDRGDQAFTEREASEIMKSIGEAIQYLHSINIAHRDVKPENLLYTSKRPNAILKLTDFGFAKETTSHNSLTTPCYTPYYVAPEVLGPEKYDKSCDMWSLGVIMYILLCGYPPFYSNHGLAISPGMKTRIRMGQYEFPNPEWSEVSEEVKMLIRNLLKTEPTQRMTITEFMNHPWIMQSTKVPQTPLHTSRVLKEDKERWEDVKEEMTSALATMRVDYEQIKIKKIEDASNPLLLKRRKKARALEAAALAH
Chain of Mitogen-activated protein kinase 1 (Homo sapiens) (P28482 whole entry, looked up): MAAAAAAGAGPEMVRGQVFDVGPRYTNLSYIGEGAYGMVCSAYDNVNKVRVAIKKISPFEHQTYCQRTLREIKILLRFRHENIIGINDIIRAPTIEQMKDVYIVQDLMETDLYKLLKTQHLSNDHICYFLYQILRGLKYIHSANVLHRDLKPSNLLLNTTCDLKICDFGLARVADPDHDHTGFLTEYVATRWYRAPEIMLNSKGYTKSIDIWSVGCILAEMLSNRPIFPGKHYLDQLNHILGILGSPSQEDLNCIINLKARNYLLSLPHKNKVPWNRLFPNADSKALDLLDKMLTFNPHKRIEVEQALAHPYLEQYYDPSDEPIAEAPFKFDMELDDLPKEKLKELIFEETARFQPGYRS

Broadly, the EC50 is the midpoint of the concentration-response curve. A word on the inhibition: it is the drop in the measured response relative to a control, in per cent. Turning to `COc1cncc(-c2nccc(-c3cc4c([nH]3)[C@@]3(CCCNC3)CNC4=O)n2)c1`, the EC50 in [1] was 126 nM; in data set [2] it was 2200 nM; in data set [3], 2300 nM; in data set [4], > 10000 nM. Further, the inhibition entry in data set [5] was “inactive”. Also, the inhibition in data set [6], in data set [7], in data set [8], in data set [9], in data set [10] and in data set [11] was > 80% each time.

Consider `O=C1NC[C@@]2(CCCNC2)c2[nH]c(-c3ccnc(-c4ccc5c(c4)OCO5)n3)cc21`, for which the EC50 in data set [1] stood at 7.4 nM; in [2] it was 850 nM; in [3], 500 nM; in data set [4], 450 nM. In addition, the inhibition entry in [5] was “inactive”. In addition, the inhibition in data set [6], in data set [7], in [8], in [9], in data set [10] and in data set [11] was > 80% in each case.

Usually pKa stands for the pH at which an ionisable group is half protonated. The half-life is the time in which the quantity being followed falls by half. A higher half-life goes with slow loss. In general, AUC refers to concentration integrated over time. Usually Papp stands for a coefficient for how fast a substance crosses the barrier. A high value points to ready permeation. For the molecule `COCCCOc1ccc(-c2nccc(-c3cc4c([nH]3)C3(CCCNC3)CNC4=O)n2)cn1` (racemic), the concentration giving a half-maximal response (EC50) was 21 nM in [1], 1500 nM in [2], 1400 nM in data set [3] and 920 nM in [4]. Also, the pKa in data set [12] was found to be 8.2. In addition, the half-life in [13] and in data set [14] was > 1 h in each case. Moreover, in data set [15], the AUC is 0.882 µM·h. The inhibition result in [5] was “inactive”. Also, the inhibition in [6], in data set [7], in data set [8], in data set [9], in [10] and in data set [11] was > 80% throughout. Besides, the Papp in [16] came out at 4.2 ×10⁻⁶ cm/s.

As for `O=C1NC[C@@]2(CCCNC2)c2[nH]c(-c3ccnc(-c4cccnc4)n3)cc21`, the EC50 amounted to 6.5 nM in [1], 1600 nM in data set [2], 1200 nM in data set [3] and 930 nM in [4]. The inhibition entry in [5] was “inactive”. The inhibition in data set [6], in [7], in data set [8], in [9], in [10] and in data set [11] was > 80% each time.

As to `O=C1NCC2(CCCNC2)c2[nH]c(-c3ccnc(-c4cc5ccccc5o4)n3)cc21` (racemic), the half-maximal effective concentration (EC50) in [1] was 11 nM. Besides, the pKa in data set [12] came to 8.4. Besides, the half-life in data set [13] and in data set [14] was > 1 h in each case. Besides, in data set [15], the AUC came out at 0.472 µM·h. For the same molecule, in data set [17], the Activity entry was “Non-toxic”. The inhibition result in data set [5] was “inactive”. The inhibition in data set [6], in data set [7], in data set [8], in data set [9], in data set [10] and in data set [11] was > 80% in each case. The same molecule showed a Papp in data set [16] of 1.5 ×10⁻⁶ cm/s.

As for `O=C1NCC2(CCCNC2)c2[nH]c(-c3ccnc(-c4cccnc4)n3)cc21` (racemic), the EC50 in data set [1] stood at 18 nM; in data set [2], 3000 nM; in [3], 2100 nM; in data set [4] it was 3300 nM. For the same molecule, the inhibition entry in data set [5] was “inactive”. The inhibition in [6], in data set [7], in data set [8], in [9], in data set [10] and in data set [11] was > 80% in each case.

As for `O=C1NC[C@]2(CCCNC2)c2[nH]c(-c3ccnc(-c4cccnc4)n3)cc21`, the half-maximal effective concentration (EC50) in data set [1] came out at 288 nM; in data set [2], 8700 nM; in data set [3], 5800 nM; in data set [4] it was 4300 nM. Besides, the inhibition result in [5] was “inactive”. For the same molecule, the inhibition in data set [6], in data set [7], in [8], in data set [9], in data set [10] and in [11] was > 80% throughout.

On to `CCC(=O)Nc1ccc(-c2nccc(-c3cc4c([nH]3)C3(CCNCC3)CNC4=O)n2)cn1`, for which the results for the EC50 in [1] and in [2] were 6.2 nM and > 10000 nM, respectively. In addition, in data set [5], the inhibition entry is “inactive”. Besides, the inhibition in data set [6], in data set [7], in data set [8], in data set [9], in [10] and in data set [11] was > 80% throughout.

Consider `COCCCOc1ccc(-c2nccc(-c3cc4c([nH]3)[C@]3(CCCNC3)CNC4=O)n2)cn1`, for which the EC50 came out at 6.9 nM in data set [1], 980 nM in data set [2], 400 nM in [3] and 430 nM in [4]. Further, the inhibition entry in data set [5] was “inactive”. In addition, the inhibition in data set [6], in [7], in data set [8], in data set [9], in [10] and in [11] was > 80% each time.

`O=C1NCC2(CCNCC2)c2[nH]c(-c3ccnc(-c4ccc5ccccc5c4)n3)cc21`: the EC50 in data set [1] amounted to 5.1 nM; in [2], 3600 nM. Besides, in [5], the inhibition result was “inactive”. For the same molecule, the inhibition in [6], in data set [7], in data set [8], in [9], in [10] and in data set [11] was > 80% in each case.

Take `COc1cncc(-c2nccc(-c3cc4c([nH]3)C3(CCNCC3)CNC4=O)n2)c1`: the 50% effective concentration (EC50) in data set [1] was 6.9 nM; in data set [2], > 10000 nM. Further, the inhibition entry in data set [5] is “inactive”. For the same molecule, the inhibition in data set [6], in data set [7], in data set [8], in [9], in data set [10] and in data set [11] was > 80% each time.

On to `COc1cncc(-c2nccc(-c3cc4c([nH]3)[C@]3(CCCNC3)CNC4=O)n2)c1`, for which the 50% effective concentration (EC50) is 9.3 nM in data set [1], 2400 nM in data set [2], 1100 nM in data set [3] and 1300 nM in data set [4]. Besides, the inhibition entry in data set [5] was “inactive”. The inhibition in [6], in [7], in data set [8], in [9], in [10] and in data set [11] was > 80% in each case.

With `CC(C)(C)c1ccc(-c2nccc(-c3cc4c([nH]3)C3(CCNCC3)CNC4=O)n2)cc1`, the 50% effective concentration (EC50) in data set [1] worked out at 6.2 nM; in [2], 5900 nM. The inhibition result in [5] was “inactive”. Also, the inhibition in data set [6], in [7], in [8], in data set [9], in [10] and in data set [11] was > 80% each time.

On to `O=C1NCC2(CCNCC2)c2[nH]c(-c3ccnc(-c4cc5ccccc5o4)n3)cc21`, for which the EC50 amounted to 5.9 nM in data set [1], 280 nM in data set [2] and 1200 nM in data set [3]. In data set [12], this molecule gave a pKa of 9.1. The half-life in [13] and in data set [14] was > 1 h each time. The AUC in data set [15] is < 0.006 µM·h. Besides, in data set [17], the Activity is > 10 µM. Further, the inhibition entry in data set [5] was “inactive”. In addition, the inhibition in data set [6], in data set [7], in data set [8], in data set [9], in data set [10] and in data set [11] was > 80% throughout.

As to `COCCCOc1ccc(-c2nccc(-c3cc4c([nH]3)[C@@]3(CCCNC3)CNC4=O)n2)cn1`, the EC50 in [1] is 129 nM; in data set [2], > 10000 nM; in data set [3] it was > 10000 nM; in [4] it was 6900 nM. Also, the inhibition result in [5] is “inactive”. Also, the inhibition in data set [6], in data set [7], in data set [8], in [9], in [10] and in data set [11] was > 80% in each case.

As for `O=C1NC[C@]2(CCCNC2)c2[nH]c(-c3ccnc(-c4ccc5c(c4)OCO5)n3)cc21`, the EC50 in [1] amounted to 91 nM; in data set [2] it was 8300 nM; in [3], 7700 nM; in [4] it was 3000 nM. Besides, in data set [5], the inhibition entry was “inactive”. Besides, the inhibition in [6], in [7], in [8], in data set [9], in data set [10] and in data set [11] was > 80% in each case.
